Data on one compound can be found in publication PMC5560747, “Computational-experimental approach to drug-target interaction mapping: A case study on kinase inhibitors” (PLoS Computational Biology, 2017).

Targets include FYN A (Homo sapiens, UniProt P06241); SRC (Homo sapiens, UniProt P12931); BRK (Homo sapiens, UniProt Q13882).
Common to all, as to assay: cell-free ADP-Glo Kinase Assay
Common to all, as to format: biochemical
Conditions in all cases: read-out: Experimental validation pIC50 (converted)

A further test addresses T1, AXL (Homo sapiens, UniProt P30530).
T1 sequence (P30530 26-894): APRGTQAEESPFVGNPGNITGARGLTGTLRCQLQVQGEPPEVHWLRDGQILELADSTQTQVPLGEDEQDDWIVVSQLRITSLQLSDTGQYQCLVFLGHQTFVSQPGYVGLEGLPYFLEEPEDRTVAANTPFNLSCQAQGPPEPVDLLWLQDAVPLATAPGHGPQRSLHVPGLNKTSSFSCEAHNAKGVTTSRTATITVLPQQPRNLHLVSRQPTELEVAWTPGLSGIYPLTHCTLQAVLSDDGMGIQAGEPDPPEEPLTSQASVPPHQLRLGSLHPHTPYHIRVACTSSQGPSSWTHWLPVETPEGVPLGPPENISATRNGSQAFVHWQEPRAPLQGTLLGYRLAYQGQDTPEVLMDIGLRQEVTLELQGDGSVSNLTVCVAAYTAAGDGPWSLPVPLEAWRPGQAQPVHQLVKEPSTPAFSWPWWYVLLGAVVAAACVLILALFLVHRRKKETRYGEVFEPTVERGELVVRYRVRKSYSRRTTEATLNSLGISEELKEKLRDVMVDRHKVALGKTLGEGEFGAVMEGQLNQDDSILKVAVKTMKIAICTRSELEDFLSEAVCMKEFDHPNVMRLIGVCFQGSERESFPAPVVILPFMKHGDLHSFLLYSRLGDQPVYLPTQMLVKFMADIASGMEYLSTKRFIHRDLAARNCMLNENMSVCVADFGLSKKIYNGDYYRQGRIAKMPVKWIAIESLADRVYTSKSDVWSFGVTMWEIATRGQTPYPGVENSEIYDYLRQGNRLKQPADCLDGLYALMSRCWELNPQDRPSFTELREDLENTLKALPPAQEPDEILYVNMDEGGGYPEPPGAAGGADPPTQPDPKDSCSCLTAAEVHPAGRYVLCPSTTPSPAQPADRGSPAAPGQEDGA

Sequence of FYN A (P06241 whole entry): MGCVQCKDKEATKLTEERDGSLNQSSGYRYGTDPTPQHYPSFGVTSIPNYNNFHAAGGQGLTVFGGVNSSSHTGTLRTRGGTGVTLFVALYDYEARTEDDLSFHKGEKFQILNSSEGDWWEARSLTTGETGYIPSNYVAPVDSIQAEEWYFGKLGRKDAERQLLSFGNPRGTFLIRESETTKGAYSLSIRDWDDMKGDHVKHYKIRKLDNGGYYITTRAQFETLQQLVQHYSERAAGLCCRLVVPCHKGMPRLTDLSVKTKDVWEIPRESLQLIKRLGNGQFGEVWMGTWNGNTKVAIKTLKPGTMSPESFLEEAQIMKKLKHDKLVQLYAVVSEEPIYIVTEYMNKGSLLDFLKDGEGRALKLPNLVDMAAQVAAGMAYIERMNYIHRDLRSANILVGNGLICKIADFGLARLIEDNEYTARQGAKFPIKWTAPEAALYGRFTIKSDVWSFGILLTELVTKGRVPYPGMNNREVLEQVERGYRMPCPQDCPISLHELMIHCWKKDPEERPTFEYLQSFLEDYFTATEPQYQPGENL
Sequence of BRK (Q13882 whole entry): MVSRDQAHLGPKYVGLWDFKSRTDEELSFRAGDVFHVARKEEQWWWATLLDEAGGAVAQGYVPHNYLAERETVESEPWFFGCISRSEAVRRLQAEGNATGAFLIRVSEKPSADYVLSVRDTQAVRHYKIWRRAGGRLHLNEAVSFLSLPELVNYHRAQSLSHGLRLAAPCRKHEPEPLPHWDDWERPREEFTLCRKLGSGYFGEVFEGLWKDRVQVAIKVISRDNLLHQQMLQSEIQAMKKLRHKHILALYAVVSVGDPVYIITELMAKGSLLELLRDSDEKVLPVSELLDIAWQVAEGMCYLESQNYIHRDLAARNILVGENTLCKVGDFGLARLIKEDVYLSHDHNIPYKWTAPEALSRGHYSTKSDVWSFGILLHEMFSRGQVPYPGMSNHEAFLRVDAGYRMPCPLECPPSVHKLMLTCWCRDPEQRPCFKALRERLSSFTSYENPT
Sequence of SRC (P12931 whole entry): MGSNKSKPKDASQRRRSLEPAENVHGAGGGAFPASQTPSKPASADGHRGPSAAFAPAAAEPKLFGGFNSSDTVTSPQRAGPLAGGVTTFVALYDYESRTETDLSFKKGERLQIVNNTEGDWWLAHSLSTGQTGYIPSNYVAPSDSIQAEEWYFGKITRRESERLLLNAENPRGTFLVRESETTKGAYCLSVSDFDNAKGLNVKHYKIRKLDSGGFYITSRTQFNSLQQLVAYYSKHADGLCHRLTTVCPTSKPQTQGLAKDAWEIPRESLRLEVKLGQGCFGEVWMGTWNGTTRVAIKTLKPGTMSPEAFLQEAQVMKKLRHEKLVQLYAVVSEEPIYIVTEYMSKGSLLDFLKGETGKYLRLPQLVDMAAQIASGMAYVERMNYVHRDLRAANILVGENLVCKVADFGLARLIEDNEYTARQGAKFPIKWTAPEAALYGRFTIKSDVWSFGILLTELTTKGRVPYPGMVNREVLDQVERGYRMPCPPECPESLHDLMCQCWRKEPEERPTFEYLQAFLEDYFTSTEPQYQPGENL
Procedure for AXL: (§1) The kinase inhibitors were dissolved to 1X Kinase Buffer with 5% DMSO by transferring 200nL of the buffer using ECHO525 Liquid handler (Labcyte). […] The dissolved kinases and 2.5X kinase buffer controls were transferred at 400nL using ECHO525. […] The 2.5X ATP/substrate working stocks were transferred at 400nL using ECHO525.
(§2) For the ADP detection, 1 μl ADP-Glo reagent was dispensed (Thermo Scientific Multidrop Combi nL). […] Next, 2 μl kinase detection reagent was dispensed with Thermo Scientific Multidrop Combi nL.
(§3) The Kinase Selectivity Profiling System kit assays were performed at least in two individual experiments, each having two replicates.
(§4) IC50 values from all the experiments were obtained with GraphPad Prism 7 (GraphPad Software, Inc. California, USA) using inhibitor vs. response—variable slope (four parameters) analysis. […] X-axis scale was set to log10.
Procedure for BRK: as §1, §2, §3, §4
Procedure for FYN A: as §1, §2, §3, §4

Regarding `COc1cc2c(Oc3ccc4[nH]c(C)cc4c3F)ncnc2cc1OCCCN1CCCC1` [Cediranib], the IC50 is 135 nM at FYN A, 724 nM on SRC, 3090 nM on AXL and 166 nM at BRK.
